Laboratory results: PubChem BioAssay (NCI)
Values joined by “and” are separate entries in the source; they are usually repeats but may differ in a detail not shown here. Identical values can stand only once.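 All cell lines were grown in 96-well plates and treated with compound for 48 hours. GI50 = concentration required for 50% inhibition of growth. TGI denotes the concentration required for complete inhibition of growth.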 Numbered stars: 1 amine (or outer) side, 2 acyl side, 3 side chain; on linkers, the order of the positions; unused ones are H or OH. Bridge positions count the residues as written; N and C are the ends. Square brackets hold non-standard residues; d marks the D form. Peptide text beside a SMILES is read from it. I, II: the chains in the order shown. Actinocin(1to9) = Cc1c2oc3c(C)ccc(C(=O)[*:2])c3nc-2c(C(=O)[*:1])c(N)c1=O; NMeV = CN[CH](C(=O)O)C(C)C; Sar = CNCC(=O)O

Columns and labels:
Test in all cases: inhibition of tumour cell growth, NCI panel, 48 h
MDA-MB-231 breast = tested on: MDA-MB-231 breast
DU-145 prostate = tested on: DU-145 prostate
SR leukemia = tested on: SR leukemia
SNB-19 CNS = tested on: SNB-19 CNS
HS 578T breast = tested on: HS 578T breast
NCI-H522 lung = tested on: NCI-H522 lung
HOP-92 NSCLC = tested on: HOP-92 NSCLC
UO-31 renal = tested on: UO-31 renal
HOP-62 NSCLC = tested on: HOP-62 NSCLC
SF-295 CNS = tested on: SF-295 CNS

Structure (SMILES)	TGI (MDA-MB-231 breast)	TGI (DU-145 prostate) [µM]	TGI (SR leukemia) [µM]	TGI (SNB-19 CNS) [µM]	TGI (HS 578T breast) [µM]	TGI (NCI-H522 lung) [µM]	TGI (HOP-92 NSCLC) [µM]	TGI (UO-31 renal) [µM]	TGI (HOP-62 NSCLC) [µM]	TGI (SF-295 CNS) [µM]	GI50 (MDA-MB-231 breast) [µM]	GI50 (DU-145 prostate) [µM]	GI50 (SR leukemia) [µM]	GI50 (SNB-19 CNS) [µM]	GI50 (HS 578T breast) [µM]	GI50 (HOP-62 NSCLC) [µM]	GI50 (NCI-H522 lung) [µM]	GI50 (SF-295 CNS) [µM]	GI50 (HOP-92 NSCLC) [nM]
CCC(C)C1NC(=O)C(NC(=O)c2c3nc4c(C(=O)NC5C(=O)NC(C(C)C)C(=O)N6CCCC6C(=O)N(C)CC(=O)N(C)C(C(C)C)C(=O)OC5C)ccc(C)c4oc-3c(C)c(=O)c2N)C(C)OC(=O)C(C(C)C)N(C)C(=O)CN(C)C(=O)C2CCCN2C1=O (stereo unspecified) (I: TIP[Sar][NMeV] / II: TVP[Sar][NMeV]; ester I:1-I:C, II:1-II:C; linker I:N-II:N via Actinocin(1to9); configuration not given here)	0.0753 µM and 0.261 µM	0.71	0.404	1.23	0.363	0.0158	0.0476												
N#Cc1c(Nc2ccccc2)[n+]([O-])c2ccc(Cl)cc2[n+]1[O-]	> 67 µM	> 96.4	> 27.7	> 77.4	> 72.8	6.49	4.22	> 29.4	> 69.9	> 74.3									
OCC1(CNc2cc(Cl)ncn2)CCC1	> 100 µM	> 100	> 100		> 100	> 100	> 100	> 100	> 100	> 100									
COc1ccc(-c2c(C#N)cnc(N)c2-c2nc3cc(C)c(C)cc3[nH]2)cc1	> 100 µM	23.8	> 100	57.1	> 100	54.7	16.3		14.4	23.4	8.28	6.92	5.64	7.06	5.87	3.65	4.74	6.41	2650
CC(C)C(=O)CP(=O)(O)O	> 100 µM	> 100	> 100	> 100	> 100	> 100	> 100		> 100	> 100									
O=C1Cc2c([nH]c3cc(Br)ccc23)-c2ccccc2N1	> 100 µM	79.7	> 100	58	69.9	52.7	88.3	38.1	26	61.3									
Cc1c(C=C(C#N)C#N)c(=O)n(C)c(=O)n1C	> 100 µM	> 100	> 100	> 100	> 100	> 100	> 100	> 100	> 100	> 100									
O[C@H]1[C@@H]2OC[C@@H](O)[C@H](OCc3ccccc3)[C@@](COCc3ccccc3)(O2)[C@@H]1OCc1ccccc1	30.9 µM	35.5	> 100	30	40.7	27.7	26.3	30.6	34.4	26.1									
O=C(N1CCN(c2ccccc2)CC1)N(C(=O)C1(c2ccc(Cl)cc2)CCCC1)S(=O)(=O)c1ccccc1	74.5 µM	> 100	> 100	72.2	88.2	36.6	74.4	92.9	88.6	70.6									
S=c1sscc1N1CCSc2ssc(=S)c21	> 100 µM	81.6	> 100	63.5	> 100	59.7	31	> 100											
COC(=O)c1c(OC(C)=O)ccc2c1c1cc3ccccc3c(OC(C)=O)c1n2C	> 100 µM	44.6	> 100	> 100	36.7	42.9	37	> 100	> 100	> 100									
CCCCn1c2c(n(CCCC)c1=[Se])-c1c(n(CCCC)c(=[Se])n1CCCC)S[Se][Se]S2	32.2 µM	63.4	> 100	> 65.2	80.5	3.34	5.93	> 44.2	49.1	30.9									
Cc1ccc(C)c(C(=N)c2ccccc2Cc2ccccc2)c1	64.2 µM	48.1	41.7	> 100	20.7	30	46.4	> 100	61.5	56									
Nc1c(O)c(C(=O)O)cc2ccccc12	28.8 µM	35.9	> 100	> 100	> 100	54.2	> 100	> 100	> 100	> 100									
Cc1cc(C)nc(NS(=O)(=O)c2ccc(NC(=O)c3ccc4nc5ccccc5c(Nc5ccc(S(=O)(=O)Nc6nc(C)cc(C)n6)cc5)c4c3)cc2)n1	53.9 µM	> 100	> 100	> 100	> 100	53.5	> 100	> 100	> 100	> 100									
COc1ccccc1NC1=NCC(C)S1 (stereo unspecified)	> 100 µM	> 100	> 100	> 100	> 100	> 100	> 100	> 100	> 100	> 100									
